Source: PMC5576976 (Translational Oncology, 2017)

Biological target: IMP1 (insulin-like growth factor-2 mRNA-binding protein 1) (Homo sapiens, UniProt Q9NZI8)
Experiment: fluorescence anisotropy/polarization microplate assay

IMP1 (insulin-like growth factor-2 mRNA-binding protein 1), sequence (Q9NZI8 whole entry): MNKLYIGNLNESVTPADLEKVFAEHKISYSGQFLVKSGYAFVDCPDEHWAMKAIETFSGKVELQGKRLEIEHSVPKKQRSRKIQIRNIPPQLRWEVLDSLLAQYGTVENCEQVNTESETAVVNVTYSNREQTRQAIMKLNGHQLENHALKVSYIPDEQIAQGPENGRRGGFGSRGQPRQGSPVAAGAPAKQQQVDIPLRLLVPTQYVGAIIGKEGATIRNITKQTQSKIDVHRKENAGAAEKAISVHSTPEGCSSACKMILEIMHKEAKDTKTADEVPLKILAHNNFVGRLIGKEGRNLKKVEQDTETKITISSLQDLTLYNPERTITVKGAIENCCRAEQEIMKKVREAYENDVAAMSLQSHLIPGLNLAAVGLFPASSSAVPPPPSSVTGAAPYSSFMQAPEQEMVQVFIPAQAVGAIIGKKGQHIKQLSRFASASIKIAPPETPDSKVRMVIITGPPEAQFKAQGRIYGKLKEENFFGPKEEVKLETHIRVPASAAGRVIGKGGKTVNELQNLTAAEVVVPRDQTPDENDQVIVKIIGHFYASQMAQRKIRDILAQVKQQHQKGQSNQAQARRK

IC50: 5 µM
Structure (SMILES): NC(=O)c1ccccc1N=Cc1ccc(Br)s1 [BTYNB, 2-{[(5-bromo-2-thienyl)methylene]amino}benzamide]
